This assay has as its system Staphylococcus aureus. The assay can be described thus: In vitro inhibition of S. aureus bacterial growth, titanium cylinder functionalized with HAS2-DOPA or HA-DOPA and Gentamicin. The class given is cell-based. To be noted: Daptomycin at the same concentrations instead of Gentamicin. The protocol:
The following were prepared:
a solution of HA-DOPA (23%, Example 12) in 0.1 M PBS, pH=8; […]
Identical treatment was applied to the other two titanium cylinders, of equal size, which were sprayed first with the HA-DOPA derivative solution and then with the Gentamicin solution, by the procedures described above.
Finally, two other titanium cylinders, of identical size, were sprayed with the PBS solution and then with the Gentamicin solution, by the procedures described above.
Each cylinder (total: 6) was then immersed once in MQ water for 5 seconds, left to air-dry for 15 minutes and inserted in a culture broth (Buffered Peptone Water: peptone 10.0 g/L, sodium chloride 5.0 g/L, anhydrous disodium phosphate 3.6 g/L, potassium phosphate 1.5 g/L, Biokar Diagnostics) inoculated with 600,000,000 CFU/mL of Staphylococcus aureus. The broth was incubated at 37° C., and at pre-set times (6 h, 12 h, 24 h, 48 h, 144 h) 1 mL of supernatant was taken up and diluted scalarly 1:10 (according to the bacterial growth), with sterile saline solution, for plate seeding (PCA—Plate Count Agar: tryptone 5.0 g/L, yeast extract 2.5 g/L, glucose 1.0 g/L, bacteriological agar 12.0 g/L. Manufactured by Biokar Diagnostics). The CFU/mL count was then conducted.
The percentage bacterial growth inhibition data over time compared with the initial inoculum of 600 million CFU/mL of S. aureus are set out in FIG. 4.

For `CCCCCCCCCC(=O)N[C@@H](Cc1c[nH]c2ccccc12)C(=O)N[C@H](CC(N)=O)C(=O)N[C@@H](CC(=O)O)C(=O)N[C@@H]1C(=O)NCC(=O)N[C@@H](CCCN)C(=O)N[C@@H](CC(=O)O)C(=O)N[C@H](C)C(=O)N[C@@H](CC(=O)O)C(=O)NCC(=O)N[C@H](CO)C(=O)N[C@@H]([C@H](C)CC(=O)O)C(=O)N[C@@H](CC(=O)c2ccccc2N)C(=O)O[C@@H]1C` [Daptomycin], the “activity profile in similar experiment with Daptomycin” value was “identical activity profile”.
